US20230391748A1, “BICYCLIC INHIBITORS OF IRAK” (priority 2022, published 2023)

Columns and labels:
[1] = target: IRAK4 (Homo sapiens (Human), UniProt Q9NWZ3); assay: IRAK4 ADP-Glo Assay; type: biochemical; conditions: MBP substrate
Procedure: The ADP-Glo™ reagents were thawed at ambient temperature. The Kinase Detection Reagent was prepared by mixing kinase detection buffer with the lyophilized kinase detection substrate, and set aside.
A stock volume of 5× Reaction Kinase Buffer was made with a final concentration of 100 mM MgCl2, 200 mM Tris-HCl, and 0.5 mg/ml of BSA, in distilled H2O with a final pH7.4. A 2× working stock volume of Reaction Kinase Buffer was made containing a final concentration of 100 μM DTT.
The components of IRAK4 Enzyme were thawed on ice. Diluted IRAK4 in 1× Kinase Reaction Buffer (diluted from 2× buffer) was prepared at 5.0 ng/μl.
Then diluted 1:5 in 2× Reaction Buffer in a 96 well plate. 1.0 μl was transferred to a 384 well plate in duplicate. […] 1 μl of 1 mg/ml stock solution of MBP substrate was added NOTE: MBP can be combined with ATP mix with equal volume and then added at 2 μl/well. Final reaction volume was 5 μl.
The plate was centrifuged and the reaction mixture was incubated at room temperature for 60 minutes or at 30° C. for 30 minutes.
The reaction was terminated and the remaining ATP was depleted by adding 5 μl of ADP-Glo™ Reagent. The 384-well plate was centrifuged and then the reaction mixture was incubated for another 40 minutes at ambient temperature.
10 μl of the Kinase Detection Reagent was added. The plate was centrifuged and then the reaction mixture was incubated for another 30 minutes at ambient temperature.
The 384-well reaction plate was read using the WALLAC plate reader (Luminescence 0.1s).

[2] = tested on: TNF-α in human PBMCs; assay: R848-induced TNF-α in human PBMCs Assay; type: cell-based; conditions: Homo sapiens, PBMC, 4 h, read-out: TNFα (PBMC, R848) (IC50, μM)
Procedure: R848-induced TNF-α in human PBMCs Assay
100 μL/well PBMCs (200K/well) were seeded in 96-well flat-bottom tissue culture plates. […] 100 μL/well 2× compound was added to the PBMC in the tissue culture plates. […] The cells were stimulated with R848 for an additional 4 hours at 37° C., 5% CO2. The supernatant (100 μl/well) was harvested to measure TNF-α by ELISA. […] The chemiluminescence values were entered into Athena (Rigel) for curve fitting, EC50 calculation, and database storage.
(§1) TNF-α ELISA was performed according to the vendor protocol, using 96 Well Flat-Bottom, MaxiSorp Black Immuno plates and 100 μL/well of supernatant. The plates were developed using 100 μL/well of Super Signal ELISA Pico Chemiluminescent Substrate. The plates were read with a luminometer, and the chemiluminescence values were entered into Athena (Rigel) for curve fitting, EC50 calculation, and database storage.

[3] = tested on: IL23p19 in THP-1 Cells; assay: LPS Induced IL23p19 in THP-1 Cells (with IFNγ Primed) Assay; type: cell-based; conditions: Homo sapiens, THP-1, 18 h, read-out: IL23 (THP, LPS) (IC50, μM)
Procedure: LPS Induced IL23p19 in THP-1 Cells (with IFNγ Primed) Assay
On day 1, 50K/well THP-1 cells were seeded and primed with IFNγ (50 ng/mL) in 384-well plates for about 18 hours in RPMI media with 10% FBS. […] 50 μL/well 2× compound was added to 50 μL/well THP-1 cells (with IFNγ primed) in duplicate in 384 well tissue culture plates. […] Day 3, after stimulation for 18 hours at 37° C., 5% CO2, the assay plate was centrifuged and 70 μL/well supernatant was harvested. IL-23p19 protein in 70 µL/well of supernatant was measured by sandwich ELISA, and 25 μl/well Cell Titer Glo reagent was added to the remaining cells to measure compound toxicity.
Maxisorp immuno ELISA plates were pre-coated with 25 μL/well of anti-IL-23p19 capture antibody (2.5 ug/mL) in PBS overnight at room temperature. […] 25 μL/well of biotin labeled anti-IL-12(p40/p70) detection antibody (100 ng/mL) in PBS with 1% BSA was added and the plates were incubated at room temperature for 2 hours with shaking. […] The plates were read with a luminometer, and the chemiluminescence values were entered into Athena (Rigel) for curve fitting, EC50 calculation, and database storage.

[4] = tested on: TNF-α in Human Primary Monocyte-Derived Dendritic Cells; assay: Gardiquimod-Induced TNF-α in Human Primary Monocyte-Derived Dendritic Cells; type: cell-based; conditions: Dendritic cell, IFNγ-primed monocyte-derived dendritic cells, 4 μg/ml Gardiquimod, 6 hours, TNF-α ELISA, read-out: TNFα (DC, GARD) (IC50)
Procedure: Gardiquimod-Induced TNF-α in Human Primary Monocyte-Derived Dendritic Cells
After 2 hours, the media including floating cells was carefully removed and 12 ml of fresh RPMI media (10% FBS) containing GM-CSF (100 ng/ml) and IL-4 (20 ng/ml) were added to the adherent monocytes. The monocytes were allowed to differentiate for 7 days at 37° C., 5% CO2 for 7 days, supplementing with fresh GM-CSF and IL-4 after 3 days. The differentiated dendritic cells (DC) were harvested by centrifugation (1200 rpm/5 min). The DCs were primed at 37° C., 5% CO2 for 24 hours with 50 ng/ml IFN-γ (1000 U/ml) at 50K/well in 100 μl/well of fresh RPMI media (10% FBS) in a white clear bottom 96 well plate.
The primed DCs were pre-incubated with test compound for 1 hour at 37° C., 5% CO2 by adding 100 μl of RPMI media containing 2× concentrated test compound per well (0.5% final DMSO concentration).
DCs were stimulated with Gardiquimod (10 μl per well of 20× concentrated Gardiquimod solution in RPMI media to give a final concentration of 4 μg/ml) at 37° C., 5% CO2 for an additional 6 hours. The supernatant (100 μl/well) was harvested to measure TNF-α by ELISA. […] The chemiluminescence values were entered into Athena (Rigel) for curve fitting, EC50 calculation, and database storage.
as §1

IRAK4, sequence (Q9NWZ3 whole entry): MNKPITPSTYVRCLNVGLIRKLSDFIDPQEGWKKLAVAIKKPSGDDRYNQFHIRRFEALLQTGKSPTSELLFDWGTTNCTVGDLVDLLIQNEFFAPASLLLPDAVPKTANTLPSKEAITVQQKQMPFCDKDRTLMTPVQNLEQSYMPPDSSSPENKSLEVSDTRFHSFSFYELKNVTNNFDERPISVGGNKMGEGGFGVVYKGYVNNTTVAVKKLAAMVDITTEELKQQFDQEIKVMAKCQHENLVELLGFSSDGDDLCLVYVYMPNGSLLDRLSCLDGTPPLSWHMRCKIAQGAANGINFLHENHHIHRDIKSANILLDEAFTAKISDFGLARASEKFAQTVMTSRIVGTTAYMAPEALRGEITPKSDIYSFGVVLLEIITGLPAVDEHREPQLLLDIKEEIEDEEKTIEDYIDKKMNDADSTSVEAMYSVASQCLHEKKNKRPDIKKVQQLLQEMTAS

SMILES | IC50 [1] [µM] | IC50 [2] [µM] | IC50 [3] [µM] | IC50 [4] [µM]
CC(C)Oc1cc2c(OC[C@@H]3CCC(=O)N3)ncc(C#CC(C)(C)CO)c2cc1C(N)=O [Compound I-5, (S)-4-(4-hydroxy-3,3-dimethylbut-1-yn-1-yl)-7-isopropoxy-1-((5-oxopyrrolidin-2-yl)methoxy)isoquinoline-6-carboxamide] | 0.12 | 0.433 | 6.51 | 0.488
CC(C)Oc1cc2c(OC[C@@H]3CCC(=O)N3)ncc(C#CC3CCOCC3)c2cc1C(N)=O [Compound I-6, (S)-7-isopropoxy-1-((5-oxopyrrolidin-2-yl)methoxy)-4-((tetrahydro-2H-pyran-4-yl)ethynyl)isoquinoline-6-carboxamide] | 0.0051 | 0.199 | 0.195 | 0.334
CC(C)Oc1cc2c(OC[C@@H]3CCC(=O)N3)ncc(C#CCN3CCOCC3)c2cc1C(N)=O [Compound I-7, (S)-7-isopropoxy-4-(3-morpholinoprop-1-yn-1-yl)-1-((5-oxopyrrolidin-2-yl)methoxy)isoquinoline-6-carboxamide] | 0.0082 | 0.402 | 0.527 | 0.383
CC(C)Oc1cc2c(OC[C@@H]3CCC(=O)N3)ncc(C#CCCN3CCOCC3)c2cc1C(N)=O [Compound I-8, (S)-7-isopropoxy-4-(4-morpholinobut-1-yn-1-yl)-1-((5-oxopyrrolidin-2-yl)methoxy)isoquinoline-6-carboxamide] | 0.0123 | 0.411 | 0.332 | 0.313
CC(C)Oc1cc2c(OC[C@@H]3CCC(=O)N3)ncc(C#CC3(O)CCCC3)c2cc1C(N)=O [Compound I-9, (S)-4-((1-hydroxycyclopentyl)ethynyl)-7-isopropoxy-1-((5-oxopyrrolidin-2-yl)methoxy)isoquinoline-6-carboxamide] | 0.0099 | 0.319 | 0.394 | 0.21
CC(C)Oc1cc2c(OC[C@@H]3CCC(=O)N3)ncc(C#CC3(O)CCOCC3)c2cc1C(N)=O [Compound I-10, (S)-4-((4-hydroxytetrahydro-2H-pyran-4-yl)ethynyl)-7-isopropoxy-1-((5-oxopyrrolidin-2-yl)methoxy)isoquinoline-6-carboxamide] | 0.0116 | 0.873 | 3.28 | 2.93
CC(C)Oc1cc2c(OC[C@@H]3CCC(=O)N3)ncc(C#CCC3CCOCC3)c2cc1C(N)=O [Compound I-11, (S)-7-isopropoxy-1-((5-oxopyrrolidin-2-yl)methoxy)-4-(3-(tetrahydro-2H-pyran-4-yl)prop-1-yn-1-yl)isoquinoline-6-carboxamide] | 0.0105 | 0.32 | 0.474 | 0.199
CC(C)Oc1cc2c(OC[C@@H]3CCC(=O)N3)ncc(C#CC3(O)CCN(C(=O)OC(C)(C)C)CC3)c2cc1C(N)=O [Compound I-12, tert-butyl (S)-4-((6-carbamoyl-7-isopropoxy-1-((5-oxopyrrolidin-2-yl)methoxy)isoquinolin-4-yl)ethynyl)-4-hydroxypiperidine-1-carboxylate] | 0.0412 | 0.448 | 1.25 | 6.09
CC(C)Oc1cc2c(OC[C@@H]3CCC(=O)N3)ncc(C#CC3(O)CCNCC3)c2cc1C(N)=O [Compound I-13, (S)-4-((4-hydroxypiperidin-4-yl)ethynyl)-7-isopropoxy-1-((5-oxopyrrolidin-2-yl)methoxy)isoquinoline-6-carboxamide] | 0.0149 | 4.67 | 4.64 | 3.5
CC(C)Oc1cc2c(OC[C@@H]3CCC(=O)N3)ncc(C#CC3CCN(C(=O)OC(C)(C)C)CC3)c2cc1C(N)=O [Compound I-15, tert-butyl (S)-4-((6-carbamoyl-7-isopropoxy-1-((5-oxopyrrolidin-2-yl)methoxy)isoquinolin-4-yl)ethynyl)piperidine-1-carboxylate] | 0.0159 | 0.0874 | 0.525 | 0.0719
COC(=O)N1CCC(C#Cc2cnc(OC[C@@H]3CCC(=O)N3)c3cc(OC(C)C)c(C(N)=O)cc23)CC1 [Compound I-16, methyl (S)-4-((6-carbamoyl-7-isopropoxy-1-((5-oxopyrrolidin-2-yl)methoxy)isoquinolin-4-yl)ethynyl)piperidine-1-carboxylate] | 0.0119 | 0.0474 | 0.0886 | 0.245
CC(C)Oc1cc2c(OC[C@@H]3CCC(=O)N3)ncc(C#CC3CCNCC3)c2cc1C(N)=O [Compound I-17, (S)-7-isopropoxy-1-((5-oxopyrrolidin-2-yl)methoxy)-4-(piperidin-4-ylethynyl)isoquinoline-6-carboxamide] | 0.0017 | 1.33 | 11.2 | 17.2
CC(C)Oc1cc2c(OC[C@@H]3CCC(=O)N3)ncc(C#CC3CCN(C)CC3)c2cc1C(N)=O [Compound I-18, (S)-7-isopropoxy-4-((1-methylpiperidin-4-yl)ethynyl)-1-((5-oxopyrrolidin-2-yl)methoxy)isoquinoline-6-carboxamide] | 0.0023 | 0.306 | 0.606 | 0.203
CCO[C@H]1CC[C@H](C#Cc2cnc(OC[C@@H]3CCC(=O)N3)c3cc(OC(C)C)c(C(N)=O)cc23)CC1 [Compound I-20, 4-(((1r,4S)-4-ethoxycyclohexyl)ethynyl)-7-isopropoxy-1-(((S)-5-oxopyrrolidin-2-yl)methoxy)isoquinoline-6-carboxamide] | 0.007 | 0.0688 | 0.11 | 0.0634
CCO[C@H]1CC[C@@H](C#Cc2cnc(OC[C@@H]3CCC(=O)N3)c3cc(OC(C)C)c(C(N)=O)cc23)CC1 [Compound I-21, 4-((cis-4-ethoxycyclohexyl)ethynyl)-7-isopropoxy-1-(((S)-5-oxopyrrolidin-2-yl)methoxy)isoquinoline-6-carboxamide] | 0.0056 | 0.104 | 0.194 | 0.101
